From US12508233B2, “Graft copolymers, methods of forming graft copolymers, and methods of use thereof” (Vanderbilt University, priority 2018, dated 2025) come the findings set out here.

This assay has as its system THP-1 ISG reporter cells. The experiment in a line: THP-1 ISG reporter cell assay in the context of cGAMP delivery. The class given is cell-based. The settings on record: free cGAMP, dashed line in FIG. 10C; read-out: Half-maximal response of cGAMP. The text has this:
The graft copolymers disclosed herein were next tested for bioactivity and drug delivery properties. As illustrated in FIGS. 9A-B, hemolysis, a measure of endosomolytic activity, increases with increasing MW and decreases with increasing hydrophilic weight fraction. Turning to FIGS. 10A-D, THP-1 ISG reporter cells were used to determine cellular uptake and cGAMP delivery.

As to `Nc1nc2c(ncn2[C@@H]2O[C@@H]3COP(=O)(O)O[C@H]4[C@@H](O)[C@H](n5cnc6c(N)ncnc65)O[C@@H]4COP(=O)(O)O[C@@H]2[C@@H]3O)c(=O)[nH]1` [cGAMP], the EC50 worked out at 40 µM.
